In US10188622B2, “Use of a composition comprising fish oil and juice for the treatment and/or post treatment of cancer” (Smartfish AS, priority 2013, dated 2019):
Values joined by “and” are separate entries in the source; they are usually repeats but may differ in a detail not shown here. Equal values may be shown once.

Test system: MP2 cells co-cultured with NK (IL-2) cells
Test: Enzymatic caspase-3 assay (CaspACE-3) in co-culture of pancreatic cancer cells and NK cells
Assay type: cell-based, human
Settings: 48 hours; for Casp-3, X1 / Casp-3, X2 / Casp-3, X3 / Casp-3, Mean: MP2 cells + NK (IL-2); for Casp-3, X1: experiment X1; for Casp-3, X1 / Casp-3, X2 / Casp-3, X3: RvD1 and DHA 50 nM; for Casp-3, X2: experiment X2; for Casp-3, X3: experiment X3; for Casp-3, Mean: mean of X1-X3; for caspase-3 expression (mean ± 2× standard error): PDAC (MP2) cells co-cultured with NK cells, as stated in text
Protocol: Mia Paca2 (MP2) and L3.6 cells from pancreatic ductal adenocarcinoma so (PDAC) were obtained from T. Donahue, UCLA Surgery and were propagated in Dulbecco's Modified Eagle's Medium (DME) with 10% foetal calf serum. 10,000 cells were plated in each well of 24-well plates and were grown at 37° C. and 24 h to near confluence before testing.
These were isolated from human blood by NK cell isolation kit (Stem cell technologies, Vancouver, Canada). NK cells were activated by treatment with IL-2 or IL2/CD16 as described in Tseng, H. C. et al. “Increased lysis of stem cells but not their differentiated cells by natural killer cells; de-differentiation or reprogramming activates NK cells.” PLOS One 5(7): e11590, 2010.
Composition of the invention (Nutrifriend 2000) containing DHA (1000 mg/200 ml) and EPA (1000 mg/200 ml) was purchased by the company Smartfish AS, Oslo, For use in cell culture, diluted 1:2 with fetal calf serum, sonicated for 30 sec and then diluted 1:100 in DMEM with 10% fetal calf serum.
NK cells were added to MP2 or L3.6 cells at a ratio of 5 NK cells per 1 MP2 cell. The co-cultures were treated with Smartfish. Addition of DHA (50 nM) or resolvin D1 (RvD1 from Cayman Chemical company, Ann Arbor, Mich., 50 nM) were tested as controls. The co-cultures is were grown for 48 hours, harvested and tested by the caspase-3 assay.
The enzymatic caspase-3 assay was performed by the CaspACE-3 assay G-7351 (Promega Corporation, Madison, Wis.) according to the manufacturer's instructions.
The data were analyzed by comparing the range of means (mean+/−2× standard error of mean). When indicated the exact value was calculated by the Fisher exact test.

Structure (SMILES) | Casp-3, X1 [µM] | Casp-3, X2 [µM] | Casp-3, X3 [µM] | Casp-3, Mean [µM] | caspase-3 expression (mean ± 2× standard error) | caspase-3 expression (mean ± 2× standard error) (listed as resolvinD1) [µM]
CC/C=C\C/C=C\C/C=C\C/C=C\C/C=C\C/C=C\CCC(=O)O [DHA, docosahexanoic acid] | 5.7 | 6.6 | 6 | 6.1 | 6.1 µM and 6.1 ± 0.48 µM | –
CC/C=C\C[C@H](O)/C=C/C=C\C=C\C=C\[C@@H](O)[C@@H](O)C/C=C\CCC(=O)O [RvD1, resolvin D1] | 6 | 6.3 | 6.6 | 6.3 | 6.3 ± 0.31 µM | 6.3 ± 0.31
